According to patent US9404081B2, “Pyruvate kinase activators for use in therapy” (AGIOS PHARMACEUTICALS, INC., priority 2011, dated 2016):

Key:
Assay type in all cases: biochemical
[1] = molecular target: PKR R510Q (Homo sapiens, UniProt P30613, R510Q); assay: PKR R510Q Single Point Percent Activation Assay; conditions: read-out: Act. % 510Q
Method: PKR R510Q Single Point Percent Activation Assay
(§1) A compound described herein was diluted with DMSO and tested at 1 μM concentration. The enzyme was diluted in 1× Buffer: (100 mM KCl, 50 mM Tris 7.5, 5 mM MgCl2, 1 mM DTT, 0.03% BSA). 2 μL of compound solution was first added into wells, and then 180 μL of enzyme solution was added. Assays were assembled except for ADP, and plates were stored for 60 minutes at RT. 20 μL ADP was added to start the assay and assay output was evaluated using OD340 at SpectraMax. The assay was run at room temperature.
Final concentration: PKR R510Q (40 ng/well), Tris pH 7.5 (50 mM), KCl (100 mM), MgCl2 (5 mM), ADP (0.2 mM), PEP (0.11 mM), NADH (180 μM), LDH (0.5 units, Sigma 59023), DTT (1 mM) and BSA (0.03%).

[2] = molecular target: PKR R532W (Homo sapiens, UniProt P30613, R532W); assay: PKR R532W Single Point Percent Activation Assay; conditions: read-out: Act, % 532W
Method: PKR R532W Single Point Percent Activation Assay
as §1
Final concentration: PKR R532W (100 ng/well), Tris pH 7.5 (50 mM), KCl (100 mM), MgCl2 (5 mM), ADP (0.36 mM), PEP (0.1 mM), NADH (180 μM), LDH (0.5 units, Sigma 59023), DTT (1 mM) and BSA (0.03%).

[3] = molecular target: PKR T384W (Homo sapiens, UniProt P30613, T384W); assay: PKR T384W Single Point Percent Activation Assay; conditions: read-out: Act. % 384W
Method: PKR T384W Single Point Percent Activation Assay
as §1, with “180 μL enzyme solution” for “180 μL of enzyme solution”
Final concentration: PKR T384W soluble (300 ng/well), Tris pH 7.5 (50 mM), KCl (100 mM), MgCl2 (5 mM), ADP (0.08 mM), PEP (0.23 mM), NADH (180 μM), LDH (0.5 units, Sigma 59023), DTT (1 mM) and BSA (0.03%).

[4] = molecular target: PKR wt (Homo sapiens, UniProt P30613); assay: PKR WT Single Point Percent Activation Assay
Method: PKR WT Single Point Percent Activation Assay
as §1
Final concentration: PKR wt (100 ng/well), Tris pH 7.5 (50 mM), KCl (100 mM), MgCl2 (5 mM), ADP (0.48 mM), PEP (0.15 mM), NADH (180 μM), LDH (0.5 units, Sigma 59023), DTT (1 mM) and BSA (0.03%).

Chain of PKR R532W (P30613 whole entry R532W): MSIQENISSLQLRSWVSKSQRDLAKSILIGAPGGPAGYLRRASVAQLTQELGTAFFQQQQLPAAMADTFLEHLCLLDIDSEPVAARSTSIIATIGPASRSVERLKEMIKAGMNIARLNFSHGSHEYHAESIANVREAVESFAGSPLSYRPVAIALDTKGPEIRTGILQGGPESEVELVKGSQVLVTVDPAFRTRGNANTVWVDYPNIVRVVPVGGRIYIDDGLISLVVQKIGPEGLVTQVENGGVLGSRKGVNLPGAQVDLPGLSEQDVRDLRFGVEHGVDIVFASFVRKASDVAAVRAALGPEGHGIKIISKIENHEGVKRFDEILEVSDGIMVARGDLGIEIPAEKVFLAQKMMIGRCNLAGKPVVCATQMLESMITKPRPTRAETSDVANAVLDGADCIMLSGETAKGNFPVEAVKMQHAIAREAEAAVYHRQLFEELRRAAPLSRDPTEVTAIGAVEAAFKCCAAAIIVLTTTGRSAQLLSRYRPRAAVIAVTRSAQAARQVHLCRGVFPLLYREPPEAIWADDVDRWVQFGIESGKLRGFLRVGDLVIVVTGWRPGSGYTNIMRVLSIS
Chain of PKR R510Q (P30613 whole entry R510Q): as the sequence (P30613 whole entry R532W) above, with R510Q, W532R counted along it
Chain of PKR T384W (P30613 whole entry T384W): as the sequence (P30613 whole entry R532W) above, with T384W, W532R counted along it
Chain of PKR wt (P30613 whole entry): as the sequence (P30613 whole entry R532W) above, with W532R counted along it

Row | SMILES | activation at 1 µM [1] | activation at 1 µM [2] | activation at 1 µM [3] | activation at 1 µM [4]
1 | C[C@@H]1CN(Cc2c(F)ccc(F)c2F)CCN1C(=O)c1ccc(NS(=O)(=O)c2cccc3cccnc23)cc1 | 1 to 100% | 101 to 500% | 101 to 500% | 101 to 500%
2 | C[C@H]1CN(Cc2ccc(Cl)c(F)c2)CCN1C(=O)c1ccc(NS(=O)(=O)c2cccc3cccnc23)cc1Cl | 1 to 100% | 101 to 500% | 101 to 500% | 1 to 100%
3 | O=C(c1ccc(NS(=O)(=O)c2cccc3cccnc23)cc1)N1CC2CCC(C1)N2Cc1ccc(F)cc1 | 101 to 500% | 1 to 100% | 1 to 100% | 101 to 500%
4 | C[C@H]1CN(Cc2c(F)cc(F)cc2F)CCN1C(=O)c1ccc(NS(=O)(=O)c2cccc3cccnc23)cc1Cl | 101 to 500% | 1 to 100% | 101 to 500% | 101 to 500%
5 | CC[C@H]1CN(Cc2cc(F)cc(F)c2)CCN1C(=O)c1ccc(NS(=O)(=O)c2cccc3cccnc23)cc1 | 101 to 500% | 101 to 500% | 101 to 500% | 101 to 500%
6 | CC(c1ccc(F)cc1)N1CCN(C(=O)c2ccc(NS(=O)(=O)c3cccc4cccnc34)cc2)[C@@H](C)C1 (some centres unmarked) | 101 to 500% | 101 to 500% | 101 to 500% | 101 to 500%
7 | CC1CN(Cc2ccc(F)cc2)CC(C)N1C(=O)c1ccc(NS(=O)(=O)c2cccc3cccnc23)cc1 (centres unmarked) | 1 to 100% | 101 to 500% | 1 to 100% | 1 to 100%
8 | C[C@H]1CN(CC2CC2)CCN1C(=O)c1ccc(NS(=O)(=O)c2cccc3cccnc23)cc1 | 1 to 100% | 101 to 500% | 1 to 100% | 101 to 500%
9 | O=C(c1ccc(NS(=O)(=O)c2cccc3cccnc23)cc1)N1C2CCC1CN(Cc1cc(F)cc(F)c1)C2 | 101 to 500% | 101 to 500% | 101 to 500% | 101 to 500%
10 | C[C@@H]1CN(C(=O)OCC2CCCO2)CCN1C(=O)c1ccc(NS(=O)(=O)c2cccc3cccnc23)cc1 (some centres unmarked) | 1 to 100% | 1 to 100% | 1 to 100% | 101 to 500%
11 | COc1cccc(CN2CCN(C(=O)c3ccc(NS(=O)(=O)c4cccc5cccnc45)cc3)[C@@H](C)C2)c1OC | 1 to 100% | 1 to 100% | 101 to 500% | 101 to 500%
12 | CC[C@H]1CN(C(C)c2cc(F)c(F)c(F)c2)CCN1C(=O)c1ccc(NS(=O)(=O)c2cccc3cccnc23)cc1 (some centres unmarked) | 1 to 100% | 1 to 100% | 1 to 100% | 1 to 100%
13 | C[C@@H]1CN(CC2CCC2)CCN1C(=O)c1ccc(NS(=O)(=O)c2cccc3cccnc23)cc1 | 101 to 500% | 101 to 500% | 1 to 100% | 101 to 500%
14 | CCOC(=O)N1[C@H](C)CN(C(=O)c2ccc(NS(=O)(=O)c3cccc4cccnc34)cc2)C[C@@H]1C | 101 to 500% | 101 to 500% | 101 to 500% | 101 to 500%
15 | O=C(c1ccc(NS(=O)(=O)c2cccc3cccnc23)cc1)N1CCn2c(nnc2-c2cc(F)cc(F)c2)C1 | 101 to 500% | 101 to 500% | 101 to 500% | 101 to 500%
16 | O=C(c1ccc(NS(=O)(=O)c2cccc3cccnc23)cc1)N1CC2CCC(C1)N2Cc1ccccc1 | 101 to 500% | 101 to 500% | 101 to 500% | 101 to 500%
17 | CC(C)OC(=O)N1CCN(C(=O)c2ccc(NS(=O)(=O)c3cccc4cccnc34)cc2)c2ccccc21 | 1 to 100% | 1 to 100% | 1 to 100% | 1 to 100%
18 | C[C@@H]1CN(C(=O)c2ccc(NS(=O)(=O)c3cccc4cccnc34)cc2)CCN1C(=O)c1ccccn1 | 1 to 100% | 1 to 100% | 101 to 500% | 101 to 500%

Row | SMILES | activation at 1 µM [1] | activation at 1 µM [2] | activation at 1 µM [3] | activation at 1 µM [4]
19 | CC(c1ccc(Cl)c(F)c1)N1CCN(C(=O)c2ccc(NS(=O)(=O)c3cccc4cccnc34)cc2)[C@H](C)C1 (some centres unmarked) | 101 to 500% | 1 to 100% | 101 to 500% | 1 to 100%
20 | C[C@H]1CN(C(=O)c2ccccn2)CCN1C(=O)c1ccc(NS(=O)(=O)c2cccc3cccnc23)cc1 | 1 to 100% | 101 to 500% | 1 to 100% | 101 to 500%
21 | C[C@H]1CN(CC2CCCC2)CCN1C(=O)c1ccc(NS(=O)(=O)c2cccc3cccnc23)cc1 | 101 to 500% | 1 to 100% | 101 to 500% | 101 to 500%
22 | CC1CN(Cc2cc(F)c(F)cc2F)CC(C)N1C(=O)c1ccc(NS(=O)(=O)c2cccc3cccnc23)cc1 (centres unmarked) | 101 to 500% | 1 to 100% | 1 to 100% | 101 to 500%
23 | C[C@H]1CN(Cc2cc(F)c(F)cc2F)CCN1C(=O)c1ccc(NS(=O)(=O)c2cccc3cccnc23)cc1 | 1 to 100% | 1 to 100% | 101 to 500% | 1 to 100%
24 | CC(c1cc(F)c(F)cc1F)N1CCN(C(=O)c2ccc(NS(=O)(=O)c3cccc4cccnc34)cc2)[C@H](C)C1 (some centres unmarked) | 101 to 500% | 101 to 500% | 1 to 100% | 101 to 500%
25 | C[C@H]1CN(CC2CCCCO2)CCN1C(=O)c1ccc(NS(=O)(=O)c2cccc3cccnc23)cc1 (some centres unmarked) | 1 to 100% | 1 to 100% | 1 to 100% | 1 to 100%
26 | O=C(c1ccc(NS(=O)(=O)c2cccc3cccnc23)cc1)N1C2CCC1CN(Cc1ccccc1)C2 | 101 to 500% | 101 to 500% | 101 to 500% | 101 to 500%
27 | C[C@@H]1CN(CC2CCOC2)CCN1C(=O)c1ccc(NS(=O)(=O)c2cccc3cccnc23)cc1 (some centres unmarked) | 101 to 500% | 101 to 500% | 101 to 500% | 101 to 500%
28 | C[C@@H]1CN(C(=O)c2ccccn2)C[C@H](C)N1C(=O)c1ccc(NS(=O)(=O)c2cccc3cccnc23)cc1 | 1 to 100% | 1 to 100% | 1 to 100% | 101 to 500%
29 | C[C@@H]1CN(C(=O)OCC2CC2)CCN1C(=O)c1ccc(NS(=O)(=O)c2cccc3cccnc23)cc1 | 1 to 100% | 101 to 500% | 1 to 100% | 1 to 100%
30 | C[C@H]1CN(CC2CCOC2)CCN1C(=O)c1ccc(NS(=O)(=O)c2cccc3cccnc23)cc1 (some centres unmarked) | 101 to 500% | 1 to 100% | 1 to 100% | 101 to 500%
31 | C[C@H]1CN(C(=O)c2ccc(NS(=O)(=O)c3cccc4cccnc34)cc2)CCN1C(=O)c1ccccn1 | 1 to 100% | 101 to 500% | 101 to 500% | 101 to 500%
32 | O=C1CN(C(=O)c2ccc(NS(=O)(=O)c3cccc4cccnc34)cc2)CCN1Cc1cc(F)cc(F)c1 | 101 to 500% | 101 to 500% | 101 to 500% | 101 to 500%
33 | C[C@@H]1CN(Cc2cc(F)c(F)cc2F)CCN1C(=O)c1ccc(NS(=O)(=O)c2cccc3cccnc23)cc1 | 1 to 100% | 1 to 100% | 1 to 100% | 1 to 100%
34 | CC(c1ccc(F)c(F)c1F)N1CCN(C(=O)c2ccc(NS(=O)(=O)c3cccc4cccnc34)cc2)[C@H](C)C1 (some centres unmarked) | 1 to 100% | 1 to 100% | 101 to 500% | 101 to 500%
35 | COc1cccc(CN2CCN(C(=O)c3ccc(NS(=O)(=O)c4cccc5cccnc45)cc3)[C@H](C)C2)c1OC | 1 to 100% | 101 to 500% | 101 to 500% | 101 to 500%
